In patent US20110178104A1, “Anti-Heparin Compounds” (POLYMEDIX INC., priority 2010, published 2011) one finds EC50 data, which are given here for 13 compounds.

Structures are written as SMILES.

For one assay, the system named is enoxaparin. Put plainly: FXa amidolytic assay (Example 10), enoxaparin. The conditions noted are these: read-out: Enox FXa EC50; enoxaparin 0.1 ug/ml; human antithrombin, bovine Factor Xa.
For another assay, the system named is tinzaparin. Description: FXa amidolytic assay (Example 10), tinzaparin. The conditions noted are these: read-out: Tinzap FXa EC50; tinzaparin 0.1 ug/ml; human antithrombin, bovine Factor Xa.
In a further assay the test system is Unfractionated heparin. Put plainly: aPTT clotting assay, UFH 0.4 U/mL in plasma (Example 10). In kind it is biochemical. The following applies: unfractionated heparin 0.4 U/mL in plasma; aPTT clotting. The procedure:
aPTT clotting Assay: Unfractionated heparin was mixed with plasma at a final concentration of 0.4 U/mL (or concentration which increases aPTT time to between 120 and 300 seconds). […] The ACL Elite Hemostasis analyzer (Beckman Coulter™) was used to add aPTT reagent (HemosIL SynthASil) to supplemented plasma. Clotting was initiated by addition of CaCl2 and time to clot was recorded.

The next assay relates to fondaparinux. Description: FXa amidolytic assay (Example 10), fondaparinux. The conditions noted are these: read-out: Fondap FXa EC50; fondaparinux 0.02 μg/mL; human antithrombin, bovine Factor Xa.

Protocol for enoxaparin: (§1) Two μl of test agent are added (range between 0.01 and 23 ug/ml) and incubated for 5 minutes at 23° C. Bovine Factor Xa was added to a final concentration of 0.636 nkat/mL and incubated for a further 10 minutes at 23° C.
Protocol for fondaparinux: as §1
Protocol for tinzaparin: as §1

Take `COc1ccc(NC(=O)[C@H](CCCCN)NC(=O)c2cc(NC(=O)[C@H](CCCCN)NC(=O)c3cc(NC(=O)[C@H](CCCCN)NC(=O)c4cc(NC(=O)[C@H](CCCCN)NC(=O)CCCC(=O)O)ccc4OC)ccc3OC)ccc2OC)cc1C(N)=O` [Compound 344]: the EC50 in the assay on enoxaparin was determined as 0.392 µM; in the assay on tinzaparin it was 0.244 µM; with Unfractionated heparin, 0.68 µM; in the assay on fondaparinux, 2.06 µM.
In the same order, the values of `COc1ccc(NC(=O)[C@H](CCCCN)NC(=O)c2cc(NC(=O)[C@H](CCCCN)NC(=O)c3cc(NC(=O)[C@H](CCCCN)NC(=O)c4cc(NC(=O)[C@H](CCCCN)NC(=O)COCC(=O)O)ccc4OC)ccc3OC)ccc2OC)cc1C(N)=O` [Compound 345] are 0.233 µM, 0.205 µM, 2.99 µM and 0.911 µM.
On to `COc1cc(OC)c(C(=O)NCCCNC(=O)c2cc(C(=O)NCCCNC(=O)c3cc(C(=O)NCCN)c(OC)cc3OC)c(OC)cc2OC)cc1C(=O)NCCN` [Compound 391], for which the half-maximal effective concentration (EC50) in the assay with enoxaparin is above 5 µM; in the assay on tinzaparin, above 5 µM; in the assay with Unfractionated heparin it was above 10 µM; in the assay on fondaparinux it was above 10 µM.
On to `COc1cc(OC)c(C(=O)NCCCNC(=O)c2cc(C(=O)NCCN)c(OC)cc2OC)cc1C(=O)O` [Compound 392], for which the EC50 in the assay with enoxaparin is above 5 µM; in the assay with tinzaparin, above 5 µM; with Unfractionated heparin, above 10 µM; with fondaparinux it was above 10 µM.
For `COc1cc(OC)c(C(=O)NC2CCN(C(=O)c3cc(C(=O)N4CCC(NC(=O)c5cc(C(=O)NCCN)c(OC)cc5OC)CC4)c(OC)cc3OC)CC2)cc1C(=O)NCCN` [Compound 393], the half-maximal effective concentration (EC50) is above 5 µM with enoxaparin, above 5 µM in the assay with tinzaparin, above 10 µM in the assay on Unfractionated heparin and above 10 µM in the assay on fondaparinux.
For `COc1cc(OC)c(C(=O)N2CCC(NC(=O)c3cc(C(=O)NCCN)c(OC)cc3OC)CC2)cc1C(=O)O` [Compound 394], the concentration giving a half-maximal response (EC50) is above 5 µM with enoxaparin, above 5 µM in the assay on tinzaparin, above 10 µM in the assay with Unfractionated heparin and above 10 µM in the assay on fondaparinux.
Turning to `COc1cc(OC)c(C(=O)NCC2CCN(C(=O)c3cc(C(=O)N4CCC(CNC(=O)c5cc(C(=O)NCCN)c(OC)cc5OC)CC4)c(OC)cc3OC)CC2)cc1C(=O)NCCN` [Compound 395], the half-maximal effective concentration (EC50) with enoxaparin is above 5 µM; in the assay with tinzaparin, above 5 µM; with Unfractionated heparin it was above 10 µM; in the assay with fondaparinux, above 10 µM.
`COc1cc(OC)c(C(=O)N2CCC(CNC(=O)c3cc(C(=O)NCCN)c(OC)cc3OC)CC2)cc1C(=O)O` [Compound 396]: the concentration for a half-maximal effect (EC50) in the assay on enoxaparin was above 5 µM; with tinzaparin it was above 5 µM; with Unfractionated heparin, above 10 µM; with fondaparinux, above 10 µM.
Take `COc1cc(OC)c(C(=O)N[C@H]2CC[C@H](NC(=O)c3cccc(C(=O)O)c3)CC2)cc1C(=O)NCCN` [Compound 399]: the EC50 with enoxaparin was above 5 µM; in the assay with tinzaparin, above 5 µM; in the assay on Unfractionated heparin, above 10 µM; with fondaparinux, above 10 µM.
For `COc1cc(OC)c(C(=O)N[C@H]2CC[C@H](NC(=O)c3cncc(C(=O)O)c3)CC2)cc1C(=O)NCCN` [Compound 401], the concentration giving a half-maximal response (EC50) in the assay with enoxaparin was above 5 µM; in the assay with tinzaparin, above 5 µM; in the assay on Unfractionated heparin it was above 10 µM; in the assay on fondaparinux, above 10 µM.
On to `COc1cc(OC)c(C(=O)N[C@H]2CC[C@H](NC(=O)c3cc(C(=O)O)ncn3)CC2)cc1C(=O)NCCN` [Compound 403], for which the EC50 is above 5 µM with enoxaparin, above 5 µM in the assay with tinzaparin, above 10 µM with Unfractionated heparin and above 10 µM with fondaparinux.
As to `COc1cc(OC)c(C(=O)N[C@H]2CC[C@@H](NC(=O)c3cc(C(=O)N[C@H]4CC[C@@H](N=C(N(C)C)N(C)C)CC4)c(OC)cc3OC)CC2)cc1C(=O)NCCCN` [Compound 405], the EC50 is above 5 µM in the assay on enoxaparin, above 5 µM in the assay with tinzaparin, above 10 µM with Unfractionated heparin and above 10 µM in the assay with fondaparinux.
In the case of `COc1cc(OC)c(C(=O)N[C@H]2CC[C@H](NC(=O)c3cc(C(=O)NCCCN)c(OC)cc3OC)CC2)cc1C(=O)O` [Compound 407], the EC50 was above 5 µM in the assay with enoxaparin, above 5 µM in the assay with tinzaparin, above 10 µM in the assay with Unfractionated heparin and above 10 µM with fondaparinux.

As a reminder, the EC50 is the concentration needed to bring the measured effect to its halfway point.
